Data: publication PMC6700280, “Identification of Novel 3-Hydroxy-pyran-4-One Derivatives as Potent HIV-1 Integrase Inhibitors Using in silico Structure-Based Combinatorial Library Design Approach” (Frontiers in Chemistry, 2019)
Where two headings read alike, the source gives them in different places.

What was measured:
HIV-1 IN [1] = molecular target: T1, HIV-1 IN (Human immunodeficiency virus type 1 group M subtype B, UniProt P04585); assay: Overall HIV-1 IN integration assay (ELISA); format: biochemical
HIV-1 [2] = assay: MT-4/MTT anti-HIV assay (HIV-induced cytopathic effect); format: cell-based; settings: Human immunodeficiency virus 1, MT4; MT-4 cells; read-out: HIV-1 activity inhibition EC50
Method: The inhibitory effect of antiviral drugs on the HIV-induced cytopathic effect (CPE) in human lymphocyte MT-4 cell culture was determined by the MT-4/MTT-assay (Pauwels et al., [1988]). This assay is based on the reduction of the yellow colored 3-(4,5-dimethylthiazol-2-yl)-2,5-diphenyltetrazolium bromide (MTT) by mitochondrial dehydrogenase of metabolically active cells to a blue formazan derivative, which can be measured spectrophotometrically. The 50% cell culture infective dose of the HIV strains was determined by titration of the virus stock using MT-4 cells. For the drug susceptibility assays, MT-4 cells were infected with 100–300 50% cell culture infective doses of the HIV strains in the presence of 5-fold serial dilutions of the antiviral drugs. The concentration of the compound achieving 50% protection against the CPE of HIV, which is defined as the 50% effective concentration (EC50), was determined. In parallel, the concentration of the compound destroying 50% of the MT-4 cells, which is defined as the 50% cytotoxic concentration (CC50), was determined as well.

[3] = MT-4/MTT cytotoxicity assay; format: cell-based, human; settings: human, MT-4 cells; read-out: Cellular toxicity CC50
Method: (§1) The inhibitory effect of antiviral drugs on the HIV-induced cytopathic effect (CPE) in human lymphocyte MT-4 cell culture was determined by the MT-4/MTT-assay (Pauwels et al., [1988]). […] The 50% cell culture infective dose of the HIV strains was determined by titration of the virus stock using MT-4 cells. For the drug susceptibility assays, MT-4 cells were infected with 100–300 50% cell culture infective doses of the HIV strains in the presence of 5-fold serial dilutions of the antiviral drugs. […] In parallel, the concentration of the compound destroying 50% of the MT-4 cells, which is defined as the 50% cytotoxic concentration (CC50), was determined as well.

MT-4 cells [4] = assay: MT-4/MTT cytotoxicity assay; format: cell-based, human
Method: as §1

[5] = molecular target: T2, HIV-1 IN strand transfer activity (Human immunodeficiency virus type 1 group M subtype B, UniProt P04585); assay: HIV-1 IN strand transfer assay (ELISA, pre-cleaved oligonucleotide substrate)
Method: The enzymatic integration reactions were carried out as previously described with minor modifications (Debyser et al., [2001]; Christ et al., [2011]). To determine the susceptibility of the HIV-1 IN enzyme to different compounds, an enzyme-linked immunosorbent assay (ELISA) adapted from Hwang et al. was used (Hwang et al., [2000]). The overall integration assay uses an oligonucleotide substrate for which one oligonucleotide (5′-[sequence]-3′) is labeled with biotin at the 3′ end and the other oligonucleotide (5′-[sequence]-3′) is labeled with digoxigenin at the 5′ end. For the strand transfer assay, a pre-cleaved oligonucleotide substrate (the second oligonucleotide lacks GT [underlined] at the 3′ end) was used. The IN enzyme was diluted in 750 mM NaCl, 10 mM Tris (pH: 7.6), 10% glycerol, and 1 mM β-mercaptoethanol. To perform the reaction, 4 μL of diluted IN (corresponding to a concentration of 1.6 μM) and 4 μL of annealed oligonucleotides (7 nM) were added in a final reaction volume of 40 μL containing 10 mM MgCl2, 5 mM dithiothreitol, 20 mM HEPES (pH 7.5), 5% polyethylene glycol, and 15% dimethyl sulfoxide. As such, the final concentration of IN in this assay was 160 nM. The reaction was carried out for 1 h at 37°C. Reaction products were denatured with 30 mM NaOH and detected by ELISA on avidin-coated plates.

HIV-1 IN [6] = molecular target: T1, HIV-1 IN; parameters: method as in Sirous et al., 2019; settings: read-out: Overall HIV-1 IN activity inhibition IC50; previously reported lead; ref Sirous et al., 2019; cited from earlier work
[7] = molecular target: T2, HIV-1 IN strand transfer activity; parameters: method as in Sirous et al., 2019; settings: read-out: HIV-1 IN strand transfer activity inhibition IC50; previously reported lead; ref Sirous et al., 2019; cited from earlier work
HIV-1 [8] = tested on: HIV-1; parameters: method as in Sirous et al., 2019; settings: MT-4 cells; previously reported lead; ref Sirous et al., 2019; read-out: HIV-1 activity inhibition EC50; cited from earlier work
MT-4 cells [9] = tested on: MT-4 cells; parameters: method as in Sirous et al., 2019; settings: previously reported lead, cited from earlier work; for CC50: ref Sirous et al., 2019, read-out: Cellular toxicity CC50; for TI (therapeutic index, CC50/EC50 ratio): ref Sirous et al., 2019

Structure (SMILES): Cc1cc(=O)c(O)c(C(=O)NCc2cc(F)cc(-c3ccccn3)c2)o1 [HPCAR-28, N-(3-Fluoro-5-(pyridin-2-yl)benzyl)-3-hydroxy-6-methyl-4-oxo-4H-pyran-2-carboxamide]
- IC50 (HIV-1 IN [1]): 0.065 ± 0.01 µM
- improvement in anti-IN potency compared to HPb (HIV-1 IN [1]; vs HPb IC50 = 0.37 μM): 6 fold
- EC50 (HIV-1 [2]): 0.23 ± 0.18 µM
- CC50 [3]: > 250 µM
- TI (therapeutic index, CC50/EC50 ratio) (MT-4 cells [4]): >1,087
- IC50 [5]: 3.37 ± 0.38 µM

Structure (SMILES): Cc1nc(-c2cccc(CNC(=O)c3oc(C)cc(=O)c3O)c2)c[nH]1 [HPCAR-89, 3-Hydroxy-6-methyl-N-(3-(2-methyl-1H-imidazol-4-yl)benzyl)-4-oxo-4H-pyran-2 carboxamide]
- IC50 (HIV-1 IN [1]): 0.27 ± 0.1 µM
- EC50 (HIV-1 [2]): 2.34 ± 0.46 µM
- CC50 [3]: > 125 µM
- TI (therapeutic index, CC50/EC50 ratio) (MT-4 cells [4]): >53.4
- IC50 [5]: 4 ± 0.34 µM

Structure (SMILES): Cc1cc(=O)c(O)c(C(=O)NCc2cccc(-n3cccc3)c2)o1 [HPCAR-142, N-(3-(1H-Pyrrol-1-yl)benzyl)-3-hydroxy-6-methyl-4-oxo-4H-pyran-2-carboxamide]
- IC50 (HIV-1 IN [1]): 1.97 ± 1.06 µM
- EC50 (HIV-1 [2]): 4.21 ± 0.52 µM
- CC50 [3]: > 85.4 µM
- TI (therapeutic index, CC50/EC50 ratio) (MT-4 cells [4]): >20.3
- IC50 [5]: 17.49 ± 0.13 µM

Structure (SMILES): Cc1cc(=O)c(O)c(C(=O)NCc2ccc(F)cc2)o1 [HPb]
- IC50 (HIV-1 IN [6]): 0.37 ± 0.17 µM
- IC50 [7]: 1.405 ± 0.01 µM
- EC50 (HIV-1 [8]): 1.72 ± 0.99 µM
- CC50 (MT-4 cells [9]): > 250 µM
- TI (therapeutic index, CC50/EC50 ratio) (MT-4 cells [9]): >145

Structure (SMILES): Cc1cc(=O)c(O)c(C(=O)NCc2ccc(Cl)cc2)o1 [HPd]
- IC50 (HIV-1 IN [6]): 0.7 ± 0.31 µM
- IC50 [7]: 1.54 ± 0.2 µM
- EC50 (HIV-1 [8]): 1.95 ± 0.93 µM
- CC50 (MT-4 cells [9]): 196 ± 4.4 µM
- TI (therapeutic index, CC50/EC50 ratio) (MT-4 cells [9]): 100.3

Structure (SMILES): Cc1nnc(C(=O)NC(C)(C)c2nc(C(=O)NCc3ccc(F)cc3)c(O)c(=O)n2C)o1 [RLT, Raltegravir, reference compound]
- EC50 (HIV-1 [2]): 0.013 ± 0.008 µM
- CC50 [3]: > 18.3 µM
